Assay: Antagonist activity at CRTH2 receptor in human whole blood assessed as inhibition of PGD2-induced eosinophil shape change incubated for 20 mins prior to PGD2-challenge measured after 10 mins by flow cytometry

CCCCC(=O)N(Cc1ccc2c(c1)OCCO2)c1cc(F)cc(-c2nnn[nH]2)c1
IC50: 40 nM

— BindingDB's records for doi:10.1021/ml200223s (2011)
